We go through three molecules from publication PMC5399052, “Integrating in vitro data and physiologically based kinetic (PBK) modelling to assess the in vivo potential developmental toxicity of a series of phenols” (Archives of Toxicology, 2016).

In general, clearance refers to a measure of how efficiently the substance is removed, as volume per time. As usually defined, the Km is the substrate concentration at which the rate is half of its maximum.

The subject of data set [1] is BeWo cells. Nature of the data set: In vitro placental transport study (BeWo b30 transwell). Here is the method: BeWo cells (passages 28–31) were cultured in DMEM with […] and supplemented with 10% (v/v) heat-inactivated FCS, 2 mM L-glutamine, 10,000 U/ml penicillin and 10 mg/ml streptomycin and maintained in polystyrene cell culture flasks (Corning, Amsterdam, the Netherlands) in a 5% CO2-humidified atmosphere at 37 °C. Cells were harvested after exposure to a trypsin–EDTA solution. Next, the cells were seeded onto Transwell® inserts (0.4-µm pored polycarbonate membrane, 12 mm diameter), with a density of 10^5 cells/cm^2. Cell culture medium (0.5 and 1.5 ml in the apical and basolateral compartment, respectively) was changed daily.
Transport experiments were performed 6 days post-seeding. The transport buffer consisted of HBSS with 30 mg/ml bovine serum albumin (apical compartment) and 10 mg/ml bovine serum albumin (basolateral compartment) representing mid- and late gestational maternal and embryonic/foetal rat plasma albumin levels, respectively (Honda et al. [2008]; Mcmullin et al. [2008]; Yeoh and Morgan [1974]). The transport experiments were performed for the same compounds and according to the same method as described for the Caco-2 transport experiments, except that only cell layers with a TEER value >190 Ω cm^2 were used for the transport experiments. The BeWo transport studies encompassed four independently performed experiments including two replicates in each assay. Samples were analysed by UPLC–PDA (see “Quantification of analytes” section) for the presence of the test compound and possible metabolites. The apparent permeability coefficients were calculated using the same method as described for the Caco-2 transport experiments.

A short description of data set [2]: in vivo. The settings on record: female, rat GD11, allometrically scaled from GD20 value of Varma and Ramakrishnan [1985], read-out: CLPL, transplacental maternal-foetal clearance rate (converted).
For data set [3] the following is noted: rat at GD20; ref Varma and Ramakrishnan [1985]; cited from earlier work.
Data set [4] deals with Caco-2 cells. The data set is described as follows: in vitro. The settings on record: Caco-2. Here is the method:
Caco-2 cells (passages 37–40) were cultured in DMEM containing 25 mM HEPES (pH 7.4) supplemented with 10% (v/v) heat-inactivated FCS, 4500 mg/l glucose, 2 mM L-glutamine, 1% (v/v) minimal essential medium non-essential amino acids, 10,000 U/ml penicillin and 10 mg/ml streptomycin and maintained in polystyrene cell culture flasks (Corning, Amsterdam, the Netherlands) in a 5% CO2-humidified atmosphere at 37 °C. Cells were harvested after exposure to a trypsin–EDTA solution. Next, the cells were seeded onto Transwell® inserts (0.4 µm pored polycarbonate membrane, 12 mm diameter), at a density of 10^5 cells/cm^2. Cell culture medium (0.5 and 1.5 ml in the apical and basolateral compartment, respectively) was changed every two days.
Transport experiments were performed between day 20 and 23 post-seeding. Prior to the transport experiments, the cell culture medium was removed and cells were equilibrated in HBSS for 30–45 min in a 5% CO2-humidified atmosphere at 37 °C. In these 45 min, the integrity of the cell monolayer was examined by measuring the Trans Epithelial Electrical Resistance (TEER) of the cell layer using a Millicell ERS-2 Volt–Ohm Meter (Millipore, USA). Only cell layers with a TEER value between 500 and 1000 Ω cm^2 were used for the transport experiments. The transport buffer for the apical compartment consisted of HBSS containing 10 mM HEPES (pH 6.5) and 10 mM sodium taurocholate and the transport buffer for the basolateral compartment consisted of HBSS (pH 7.4) with 30 mg/ml bovine serum albumin. At first, 1.5 ml pre-warmed (37 °C) transport buffer was added to the basolateral compartment. Then, the transport experiments were started by adding 0.5 ml pre-warmed transport buffer containing the test compound (100 µM) to the apical compartment. After 60-min incubation in a 5% CO2-humidified atmosphere at 37 °C, a 75 µl sample was taken from the basolateral compartment and then from the apical compartment. Each sample was added to 150 µl ice-cold methanol, vortexed and put on ice immediately. […] Samples were analysed by UPLC–PDA (see “Quantification of analytes” section) for the presence of the test compound and possible metabolites.
TEER values were also measured at the end of the transport experiment, during the first washing step and compared to the TEER values measured before the transport experiment in order to assess toxicity of the test compound to the cell monolayer. […]
The apparent permeability coefficients (P app; cm/s) were calculated using the following algorithm: Papp=ΔQ/Δt/A∗C0 where P app is the apparent permeability coefficient (cm/s), ΔQ/Δt (nmol/s) is the amount of the test compound transported to the receiver chamber in a certain time period, A is the transwell membrane surface area (cm^2) and C 0 is the initial concentration of the test compound in the donor compartment (µM).
In order to assess the validity of the P app calculations for this experiment, the linearity of transport from the apical to the basolateral side was verified by taking samples from the basolateral side at t = 15, 30, 60 and 90 min, at a test concentration of 100 µM. […] The recovery of the test compound in each transport experiment was calculated with a mass balance equation, taking into account the amount of the test compound in the apical and basolateral compartment and the amount in the cells and/or filter of the Transwell® insert.

Data set [5] deals with rat liver microsomes. The data set is described as follows: in vitro. How it is done: The formation of glucuronide metabolites of the p-substituted phenols was investigated in incubations with rat liver microsomes. […] To obtain maximum glucuronidation activity, the microsomes were activated by preincubating the incubation mixture with 0.025 mg/ml alamethicin added from a 200 times concentrated stock solution in methanol, during 15 min on ice (Fisher et al. [2000]). Subsequently, the incubations were started after a 1-min preincubation at 37 °C by addition of the substrate from a 200 times concentrated stock solution in DMSO and incubated in a shaking water bath at 37 °C for 45 min. The reactions were terminated by addition of ice-cold acetonitrile (20% v/v). In the blank incubation mixtures, UDPGA was omitted. Samples were analysed by UPLC–PDA (see “Quantification of analytes” section). No reference standards of the glucuronide metabolites were commercially available. […] At first, retention times from the UPLC–PDA chromatograms of the parent compound of the blank incubation were compared with the retention times of newly appearing peaks in chromatograms of the incubation mixtures, as the glucuronide conjugates are expected to elute earlier compared with their parent compounds due do their increased hydrophilicity. […] For this purpose, a volume of 10 µl of the incubation mixture of the glucuronidation assay (that was not terminated by the addition of ice-cold acetonitrile) was added to 90 µl of 200 mM potassium phosphate (pH 6.2). Then, 4 µl of glucuronidase (200 units/ml) was added, and the mixtures were incubated for 60 min in a shaking water bath at 37 °C. The reactions were terminated by addition of ice-cold acetonitrile (20% v/v) and were put on ice. Control samples were treated under the same conditions, but without glucuronidase.
The conditions of the incubation assays were optimised to obtain linear reaction rates with respect to incubation time and protein concentration and non-limiting cofactor levels were applied. […] To obtain maximum glucuronidation activity, the microsomes were activated by preincubating the incubation mixture with 0.025 mg/ml alamethicin added from a 200 times concentrated stock solution in methanol, during 15 min on ice (Fisher et al. [2000]).
Kinetic constants for the glucuronidation of the p-substituted phenols were derived by fitting the data to the standard Michaelis–Menten equation; v=Vmax∗S/Km+[S] in which [S] represents the substrate concentration, V max the maximum velocity and K m the Michaelis–Menten constant for the formation of the glucuronide metabolites. Data analysis was accomplished using GraphPad Prism 5.0 software (GraphPad, San Diego, CA, USA). […] The in vivo K m value was assumed to be the same to the in vitro K m value.
Samples from the BeWo and Caco-2 transport experiments were centrifuged at 13,000 rpm at 5 °C for 15 min. Next 7.5 µl of the supernatant of each sample was analysed by UPLC (Waters Acquity). Samples from the glucuronidation assays were centrifuged at 15,000 rpm at 5 °C for 5 min. […] All samples, except those from transport studies with fluorescein, were analysed on a Waters BEH C18 1.7 µm column, 2.1 × 50 mm, with nanopure water (0.1% TFA) (A) and pure acetonitrile (B) applying a gradient elution. The start condition was 100:0 (A:B), changing to 90:10 from 1 to 2 min, then to 10:90 from 2 to 4 min (or from 2 to 3 min when analysing samples for p-heptyloxyphenylglucuronide), remaining at this ratio for 0.5 min and then rapidly declining to the start condition. The flow rate was 0.6 ml/min.

The conditions of data set [6]: without cells; ref Strikwold et al. [2012]; cited from earlier work.
Data set [7] has as its system albumin. The settings on record: cited from earlier work.
The subject of data set [8] is whole embryo culture. The settings on record: cited from earlier work.

Consider `O=C1OC2(c3ccc(O)cc3Oc3cc(O)ccc32)c2ccccc21` [fluorescein, reference compound], for which, in data set [1] (BeWo), the “P app / transport fold lower than antipyrine” value came to 11 fold.
`Cc1cc(=O)n(-c2ccccc2)n1C` [Antipyrine, antipyrine]: the clearance in data set [2] was 3 mL/min. For the same molecule, in data set [3], the Transplacental clearance value is 7.47 mL/min/kg.
Regarding `CCCCCCCOc1ccc(O)cc1` [p-Heptyloxyphenol, p-heptyloxyphenol], the “ka, predicted oral absorption coefficient” value in data set [4] is 6.34 h⁻¹. Also, in data set [1], the “CLPL, predicted rat transplacental clearance” value was 0.026 L/h. In data set [5], the Km came to 2.1 ± 0.6 µM and the “Scaled Vmax(app)” value is 137 µmol/h/g liver. Also, the “Vmax(app) glucuronidation (± SD)” value in data set [5] (rat liver microsomes, 10 mM UDPGA, alamethicin activated) is 60 ± 4.5 nmol/min/mg microsomal protein. In addition, the “Concentration in EST culture medium over time” value in data set [6] is on record as “stable”. Besides, in data set [7], the “Fraction bound to albumin” value was 0.99. In addition, the “Embryotoxic potency when hepatocytes were added” value in data set [8] was “greatly reduced”.
